Reference: patent US10391148B2, “Method of prevention and inhibition of preterm labor” (Wayne State University, priority 2016, dated 2019)
“Also recorded” adds a separate entry of the source.

B1: IL-4: T helper type 2 cytokine, Peprotech 200-04 (protein, UniProt P05112 25-153, looked up)
Interleukin-4: HKCDITLQEIIKTLNSLTEQKTLCTELTVTDIFAASKNTTEKETFCRAATVLRQFYSHHEKDTRCLGATAQQFHRHKQLIRFLKRLDRNLWGLAGLNSCPVKEANQSTLENFLERLKTIMREKYSKCSS
B2: IL-10: cytokine, Peprotech 200-10 (protein, UniProt P22301 19-178, looked up)
Interleukin-10: SPGQGTQSENSCTHFPGNLPNMLRDLRDAFSRVKTFFQMKDQLDNLLLKESLLEDFKGYLGCQALSEMIQFYLEEVMPQAENQDPDIKAHVNSLGENLKTLRLRLRRCHRFLPCENKSKAVEQVKNAFNKLQEKGIYKAMSEFDIFINYIEAYMTMKIRN
B3: IL-33: interleukin 33 cytokine (R&D 3625-IL-010 or Peprotech 200-33); human IL-33 is SEQ ID NO: 5 (protein, listed as Homo sapiens)
chain: MKPKMKYSTNKISTAKWKNTASKALCFKLGKSQQKAKEVCPMYFMKLRSGLMIKKEACYFRRETTKRPSLKTGRKHKRHLVLAACQQQSTVECFAFGISGVQKYTRALHDSSITGISPITEYLASLSTYNDQSITFALEDESYEIYVEDLKKDEKKDKVLLSYYESQHPSNESGDGVDGKMLMVTLSPTKDFWLHANNKEHSVELHKCEKPLPDQAFFVLHNMHSNCVSFECKTDPGVFIGVKDNHLALIKVDSSENLCTENILFKLSET
B4: IL-25: T helper type 2 cytokine, R&D 1258-IL-025 (protein, UniProt Q9H293 33-177, looked up)
Interleukin-25: YSHWPSCCPSKGQDTSEELLRWSTVPVPPLEPARPNRHPESCRASEDGPLNSRAISPWRYELDRDLNRLPQDLYHARCLCPHCVSLQTGSHMDPRGNSELLYHNQTVFYRRPCHGEKGTHKGYCLERRLYRVSLACVCVRPRVMG
B5: IFN-γ: cytokine, Peprotech 300-02 (protein, UniProt P01579 24-161, looked up)
Interferon gamma: QDPYVKEAENLKKYFNAGHSDVADNGTLFLGILKNWKEESDRKIMQSQIVSFYFKLFKNFKDDQSIQKSVETIKEDMNVKFFNSNKKKRDDFEKLTNYSVTDLNVQRKAIHELIQVMAELSPAAKTGKRKRSQMLFRG

How the values were obtained:
[1] = tested on: PIBF1 expression by human peripheral blood B cells; assay: PIBF1 expression by purified human peripheral blood IgD+ B cells after stimulation (qRT-PCR, Western Blot); type: cell-based; conditions: 2 days (3 days in FIG. 4A), 100 ng/ml cytokine, 1 ng/ml TGF-β, 1 μM progesterone, vs medium control
Protocol: Placentas and the attached chorioamniotic membranes were obtained after delivery. In each case, several random strips of the chorioamniotic membranes located at different regions of the choriodecidua were embedded in rolls in optimal cutting temperature (OCT) compound (Sakura Finetek 4583), frozen in liquid nitrogen and stored at −80° C. for immunofluorescence analysis. Choriodecidual tissues were scraped from the chorionic membranes that had blood clots removed, and digested with 0.2% (w/v) Clostridium histolyticum Collagenase V (Sigma-Aldrich C9263) in RPMI-1640 with 10% fetal bovine serum (Thermo Fisher Scientific 26140-079) at 37° C. with gentle agitation for 45 minutes. Cells released from the tissues were cleaned by being passed through a 100 μm cell strainer and centrifuged on a Ficoll gradient. Peripheral blood leukocytes of anonymous healthy donors after leukophoresis were obtained from the Southeast Michigan branch of American Red Cross. Peripheral blood mononuclear cells (PBMCs) were isolated using Histopaque-1077 (Sigma-Aldrich 10771) following the manufacturer's instruction. Red blood cells were lysed using an ammonium-chloride-potassium (ACK) lysing buffer (Thermo Fisher Scientific A1049201). IgD+B cells were purified from PBMCs by magnetic-activated cell sorting (MACS) with a biotinylated goat F(ab′)2 anti-human IgD antibody and anti-biotin magnetic microbeads (Miltenyi Biotec) as described in Chen, K., et al., Nat Immunol 10, 889-898 (2009). The purity of the IgD+B cells ranged from 92% to 99% as determined by flow cytometry with CDI9 staining. CD19+ B cells were similarly separated from PBMCs using a biotinylated mouse anti-human CD19 (clone HIB19) antibody, with purity ranging from 93% to 97% as determined by flow cytometry using a different clone (SJ25C1) of CD19 antibody.
Human PMBCs, IgD+B cells, CD19+ B cells or PBMCs depleted of CD19+ B cells were cultured in RPMI-1640 medium (Sigma-Aldrich R8578) supplemented with 2 mM L-glutamine, 2 mg/ml NaHCO3, 100 U/ml penicillin, 100 µg/ml streptomycin, […] amphotericin B and 10% FBS. Cells were stimulated with 100 ng/ml IL-33 (R&D 3625-IL-010 or Peprotech 200-33), 1 μM progesterone (Sigma-Aldrich P0130), IL-4 (Peprotech 200-04), IL-10 (Peprotech 200-10), IL-17A (Peprotech 200-17), IL-25 (R&D 1258-IL-025), IFN-γ (Peprotech 300-02), TGF-β (R&D 240-B-010/CF), TNF (210-TA-020) or TSLP (Peprotech 300-62). RNA or protein expression was analyzed after 2 days.
RNA was extracted from cells or tissues using TRIzol (Thermo Fisher Scientific 15596026). cDNA synthesis was performed using the Superscript III first strand synthesis system (Thermo Fisher Scientific 188080051) in a thermocycler (Bio-Rad T100). qRT-PCR was performed with Power SYBR Green PCR Master Mix (Thermo Fisher Scientific 4367660) in a StepOnePlus instrument (Applied Biosystems) using pairs of sense and anti-sense primers targeted at the genes of interest (Tables 2, 3).
Cells were pelleted and washed twice with cold PBS and lysed in a pH 8.0 protein extraction buffer containing 20 mM Tris-HCl, 150 mM NaCl, 1% IGEPAL CA-630 (Sigma-Aldrich 18896), 0.1% sodium dodecyl sulfate (SDS), 1 mM EDTA and protease and phosphatase inhibitor cocktail on ice for 30 minutes. For protein extraction from mouse uterus and human chorioamniotic membranes, the tissue was washed twice with PBS to remove blood and homogenized in the above protein extraction buffer with a tissue tearor (Biospec Products 985370), followed by 3 rounds of sonication at 30% maximum power for 5 seconds per round using a sonifier (Thermo Fisher Scientific Q500). Supernatants were collected after centrifugation, heated at 98° C. in an SDS buffer with 4% β-mecaptoethanol for 5 minutes to denature proteins. Proteins were resolved in 4-20% Bis-Tris gels (GenScript M42012) and transferred to 0.45 μm nitrocellulose membranes (Bio-Rad 1620115). […]

[2] = tested on: pregnant female μMT mice (LPS-induced PTL); assay: LPS-induced preterm labor in pregnant μMT mice: preterm delivery and neonatal/fetal mortality; type: in vivo, mouse; conditions: read on gd 17.5, fPIBF1 1 μg (800 ng in method), cPIBF1 300 ng, vs PBS; for rate of preterm delivery (PTL): protein intravenous on gd 16.5 three hours before 5 μg intraperitoneal LPS
Protocol: Six to ten-week old virgin female C57BL/6 (WT) or μMT mice were mated with male Balb/c mice. Female mice were examined daily in the early morning for the presence of a vaginal plug, which denoted gestational day (gd) 0.5. In the late morning of gd 16.5, pregnant female mice were intraperitoneally administered with 200 μl sterile PBS or 200 μl sterile PBS containing 0.5, 2.5, 5, 10 or 20 μg lipopolysaccharides (LPS) from Salmonella enterica serotype typhimurium (Sigma-Aldrich L6143). The various doses of LPS were given to the mice randomly. In some experiments, splenic B cells of 5 to 8-week old virgin female WT or IL-10−/− mice were purified using a mouse resting B cell negative isolation kit (Miltenyi Biotec 130-090-862) to 94% to 99% purity as determined by CD19 staining. 107 purified B cells were adoptively transferred in 200 μl sterile PBS into pregnant female μMT mice on gd 14.5 prior to LPS administration on gd 16.5. In some other experiments, 200 μl sterile PBS or 200 μl sterile PBS containing 800 ng recombinant full-length PIBF1 (fPIBF1) (aa 1-757 (SEQ ID NO:11, with an N-terminal glutathione-S-transferase (GST) tag of 232 amino acids, Abnova H00010464-P01) or 300 ng of a recombinant C-terminal fragment of PIBF1 (cPIBF1) (aa 660-755 (SEQ ID NO:12), with an N-terminal glutathione-S-transferase (GST) tag of 232 amino acids, Abnova H00010464-Q01) was intravenously administered to pregnant female μMT mice on gd 16.5 three hours prior to intraperitoneal LPS administration. 24 hours after LPS administration, female mice were examined for delivery and death of delivered pups if delivery occurred. They were then sacrificed for the examination of neonatal/fetal mortality, which was calculated as the total number of dead delivered pups and dead fetuses divided by the total number of implantation sites. Uteri were collected, briefly washed in PBS and processed for RNA and protein extraction or flow cytometry. The people performing the analysis were not blinded to the genotype or treatment of the mice.
The sample size was calculated based on the effect size derived from preliminary data at 5% significance level and 80% power using the software G*Power 3.1. Sample availability exceeded the estimated sample size. Results are expressed as mean±S.E.M. Percentage data were subjected to square root transformation prior to statistical analysis to verify test assumptions of equal variance. Statistical difference in the rate of PTL between different strains of mice or different treatment groups was assessed by Fisher's exact test. Statistical difference in neonatal/fetal mortality was assessed by Mann-Whitney U test. For flow cytometry and qRT-PCR data, Shapiro-Wilk test was used to determine the normality of the data. Statistical significance was assessed by Student's t-test for normally distributed data and Mann-Whitney U test for non-normally distributed data. p values <0.05 were considered statistically significant.

Row | Molecule | PIBF1 expression by human peripheral blood B cells (PIBF1 transcript fold change, Western Blot) [1] | also measured
1 | CC(=O)[C@H]1CC[C@H]2[C@@H]3CCC4=CC(=O)CC[C@]4(C)[C@H]3CC[C@]12C [progesterone, reference compound] | known inducer of PIBF1 | 
2 | TGF-β: cytokine, R&D 240-B-010/CF [reference compound] | had no effect; also recorded: do not induce | 
3 | TSLP: T helper type 2 cytokine, Peprotech 300-62 [reference compound] | only IL-33 induced PIBF1 expression; also recorded: do not induce | 
4 | cPIBF1: recombinant C-terminal fragment of PIBF1, aa 660-755, SEQ ID NO:12, N-terminal GST tag, Abnova H00010464-Q01 |  | neonatal/fetal mortality ([2]; protein intravenous on gd 16.5 before 5 μg intraperitoneal LPS): neither mitigated; rate of preterm delivery (PTL) [2]: neither mitigated; rate of preterm delivery (PTL) ([2]; listed as C-terminal fragment of PIBF1): does not protect
5 | B1 | only IL-33 induced PIBF1 expression; also recorded: do not induce | 
6 | B2 | had no effect; also recorded: do not induce | 
7 | B3 | promoted PIBF1 expression | 
8 | B4 | only IL-33 induced PIBF1 expression; also recorded: do not induce | 
9 | B5 | had no effect; also recorded: do not induce | 
